Tests used:
[1] = molecular target: T1, SIRT2 (Homo sapiens, UniProt Q8IXJ6); test: AMC-peptide fluorogenic deacetylase assay with recombinant SIRT2; Lineweaver-Burk kinetics; type: biochemical
T1 construct: SIRT2 (whole)
T1 sequence (Q8IXJ6 1-389): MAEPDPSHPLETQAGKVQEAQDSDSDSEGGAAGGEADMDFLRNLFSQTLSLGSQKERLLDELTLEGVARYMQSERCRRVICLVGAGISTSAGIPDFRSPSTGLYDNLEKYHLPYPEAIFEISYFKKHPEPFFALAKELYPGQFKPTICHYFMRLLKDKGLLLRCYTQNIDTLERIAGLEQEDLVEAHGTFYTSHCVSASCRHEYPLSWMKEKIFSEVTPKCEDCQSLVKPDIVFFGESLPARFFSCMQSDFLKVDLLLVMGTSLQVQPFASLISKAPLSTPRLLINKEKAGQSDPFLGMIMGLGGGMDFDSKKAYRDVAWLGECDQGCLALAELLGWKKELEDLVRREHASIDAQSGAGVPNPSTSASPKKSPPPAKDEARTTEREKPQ

[2] = molecular target: T2, SIRT1 (Homo sapiens, UniProt Q96EB6); test: AMC-peptide fluorogenic deacetylase assay with recombinant SIRT1, activation at […], compound fluorescence background subtracted; type: biochemical
T2 construct: SIRT1 (part)
T2 sequence (Q96EB6 2-747): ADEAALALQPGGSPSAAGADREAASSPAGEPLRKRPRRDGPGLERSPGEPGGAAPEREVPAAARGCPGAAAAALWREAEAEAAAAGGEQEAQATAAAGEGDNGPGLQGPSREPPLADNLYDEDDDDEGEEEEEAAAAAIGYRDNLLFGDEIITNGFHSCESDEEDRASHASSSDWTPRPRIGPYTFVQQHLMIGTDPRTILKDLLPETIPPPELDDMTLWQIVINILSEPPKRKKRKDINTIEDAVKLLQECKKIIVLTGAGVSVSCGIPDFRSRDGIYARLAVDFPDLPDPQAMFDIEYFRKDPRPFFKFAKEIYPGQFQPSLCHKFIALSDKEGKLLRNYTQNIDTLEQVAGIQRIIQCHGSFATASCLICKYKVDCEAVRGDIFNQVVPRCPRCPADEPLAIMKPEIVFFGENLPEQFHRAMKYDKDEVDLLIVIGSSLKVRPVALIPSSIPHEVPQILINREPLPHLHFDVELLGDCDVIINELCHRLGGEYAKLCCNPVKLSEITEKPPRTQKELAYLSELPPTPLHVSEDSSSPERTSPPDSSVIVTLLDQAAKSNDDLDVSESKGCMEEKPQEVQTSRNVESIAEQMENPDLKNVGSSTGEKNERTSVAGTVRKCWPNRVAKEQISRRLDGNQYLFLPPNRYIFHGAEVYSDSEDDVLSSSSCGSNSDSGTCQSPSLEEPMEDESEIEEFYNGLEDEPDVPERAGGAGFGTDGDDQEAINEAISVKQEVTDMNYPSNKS

SMILES | IC50 [1] [µM] | fold induction at 10 µM [2]
COc1ccc2ccc(=O)oc2c1CC=C(C)C [compound 4, osthole] | 10 | 
Oc1ccc(/C=C/c2cc(O)cc(O)c2)cc1 [compound 1, resveratrol] |  | 11.6

From publication PMC6100537, “Exploration of the Fluorescent Properties and the Modulated Activities against Sirtuin Fluorogenic Assays of Chromenone-Derived Natural Products” (Molecules : A Journal of Synthetic Chemistry and Natural …, 2018)
